We go through 34 compounds from PubChem BioAssay AID790 (SRMLSC, 2007).

Assay [1] is described as follows: growth inhibition of yeast vps1Δ mutant, dose response, S. cerevisiae, background strain comparison (AID 790). To be noted: S. cerevisiae vps1Δ mutant growth inhibition; measured here: background strain growth inhibition.
Assay [2] has as its system S. cerevisiae vps1Δ mutant growth inhibition. Described as above.

The structures appear in SMILES notation. Activity calls are given as the source filed them. The rule behind the calls is not given here.

A word on the IC50: it is the concentration needed to halve the response being measured. For the compound `CCc1n[nH]c2c1/C(=N\O)CC(C)(C)C2`, the half-maximal inhibitory concentration (IC50) is greater than 10 µM in assay [1] and > 10 µM (inactive) in assay [2].
On the same counts, the results for `COc1cccc(OCCCCN2CC(C)OC(C)C2)c1` (stereo not drawn) are greater than 10 µM and > 10 µM (inactive).
On the same counts, the results for `Cc1ccc(-c2csc3nnc(SCC(=O)Nc4cccc(C)n4)n23)cc1` are greater than 10 µM and > 10 µM (inactive).
For `O=C1CC(N2CCN(c3ccc(Cl)c(Cl)c3)CC2)C(=O)N1` (stereo not drawn) the same measures were greater than 10 µM and 15.3 µM.
In the case of `Clc1ccc(Cn2nnc(-c3ccc(CN4CCOCC4)cc3)n2)cc1`, the half-maximal inhibitory concentration (IC50) was greater than 10 µM in assay [1] and > 10 µM (inactive) in assay [2].
On the same counts, the results for `CCOC(=O)Cn1cc(C=O)c2ccccc21` are greater than 10 µM and > 10 µM (inactive).
On the same counts, the results for `c1coc(CNc2nc(N3CCCCC3)nc3ccccc23)c1` are greater than 10 µM and > 10 µM (inactive).
On the same counts, the results for `Cc1ccc(S(=O)(=O)NC(CC(C)C)C(=O)Oc2ccc3c4c(c(=O)oc3c2)CCC4)cc1` (stereo not drawn) are greater than 10 µM and > 10 µM (inactive).
For `CC(=O)c1cnc2nc(C)nn2c1C`, the values for the IC50 in assay [1] and in assay [2] were greater than 10 µM and > 10 µM (inactive), respectively.
On the same counts, the results for `COc1ccc(Cl)cc1NC(=O)C(C)N1CCN(C/C=C/c2ccccc2)CC1` (stereo not drawn) are 15 µM and > 10 µM (inactive).
For `Cc1cc(NCCCN2CCOCC2)n2ncc(-c3ccc(Cl)cc3)c2n1` the same measures were greater than 10 µM and > 10 µM (inactive).
In the case of `O=C(COc1ccc(Br)cc1F)NC1CCN(Cc2ccccc2)CC1`, the IC50 is greater than 10 µM in assay [1] and > 10 µM (inactive) in assay [2].
For the compound `C=CCc1ccc(OCC(O)CN2CCC(Cc3ccccc3)CC2)c(OC)c1` (stereo not drawn), the half-maximal inhibitory concentration (IC50) in assay [1] was 19.1 µM; in assay [2], 19.4 µM (inactive).
On the same counts, the results for `COc1ccc(-c2nnc(CSc3nc4ccccc4c(=O)n3C)o2)cc1OC` are greater than 10 µM and > 10 µM (inactive).
On the same counts, the results for `Clc1ccc2[nH]c3c(NCC4CCCO4)ncnc3c2c1` (stereo not drawn) are greater than 10 µM and > 10 µM (inactive).
As for `CC1CC(C)CN(CC(C)(C)NS(=O)(=O)c2ccc(Cl)cc2)C1` (stereo not drawn), the IC50 is greater than 10 µM in assay [1] and > 10 µM (inactive) in assay [2].
For `CCCc1cc(NCCCCO)n2c(nc3ccccc32)c1C#N` the same measures were greater than 10 µM and > 10 µM (inactive).
For `O=c1c2cccc3c2c(nn1CN1CCOCC1)-c1ccccc1-3` the same measures were greater than 10 µM and > 10 µM (inactive).
On the same counts, the results for `O=C(COc1ccc(Cl)cc1Cl)NCCCN1CCOCC1` are greater than 10 µM and > 10 µM (inactive).
Regarding `O=C(NCc1ccccc1)NS(=O)(=O)c1ccccc1Cl`, the IC50 was greater than 10 µM in assay [1] and > 10 µM (inactive) in assay [2].
On the same counts, the results for `O=C1c2ccccc2C(=O)c2c1oc(C(F)(F)F)c2C(=O)c1ccccc1` are 2.2 µM and 1.3 µM.
For `CCOc1ccc(-c2[nH]ncc2Oc2ccccc2OCC)c(O)c1` the same measures were 16 µM and 23.7 µM (inactive).
On the same counts, the results for `Cc1ccc(CN2CCN(/N=C/c3cc(Br)ccc3O)CC2)cc1` are greater than 10 µM and > 10 µM (inactive).
Consider `Cn1c(=O)cc(NCc2ccccc2)[nH]c1=O`, for which the concentration for half-maximal inhibition (IC50) in assay [1] is greater than 10 µM; in assay [2], > 10 µM (inactive).
As for `Fc1ccc(-c2noc(C3CCN(Cc4cccnc4)CC3)n2)cc1`, the IC50 in assay [1] was greater than 10 µM; in assay [2], > 10 µM (inactive).
On the same counts, the results for `Cc1cc(OCC(F)(F)C(F)(F)C(F)(F)C(F)(F)C(F)(F)C(F)F)nc(N)n1` are greater than 10 µM and > 10 µM (inactive).
For `CCN(CC)CCn1nc(C)nc1-c1ccccc1O` the same measures were greater than 10 µM and > 10 µM (inactive).
For `CCSc1nnc(NC(=O)NCC(F)(F)F)s1` the same measures were greater than 10 µM and > 10 µM (inactive).
Regarding `COCCCNc1ccnc2c(Cl)cccc12`, the IC50 in assay [1] is greater than 10 µM; in assay [2] it was > 10 µM (inactive).
For `CC(C)COC(=O)c1ccc2c(c1O)C(=O)c1ccccc1C2=O` the same measures were greater than 10 µM and 22.9 µM.
On the same counts, the results for `Cc1ccc(C)c(C(=O)NCc2ccncc2)c1` are greater than 10 µM and > 10 µM (inactive).
As to `Cc1ccc(C2(C(F)(F)F)N=C3Sc4cc(C)cc(C)c4N3C(=O)N2)cc1` (stereo not drawn), the half-inhibitory concentration (IC50) is 1.08 µM in assay [1] and 1.37 µM (inactive) in assay [2].
On the same counts, the results for `CCCCC(=O)Nc1nc(C)c(-c2csc(Nc3ccc(Cl)cc3)n2)s1` are 6.26 µM and 6.39 µM (inactive).
For `O=C(Nc1nc(-c2ccccn2)cs1)c1ncc(Cl)c(Cl)c1Cl` the same measures were 13.3 µM and 2.06 µM.
